Here are results for five compounds from patent US20080269237A1, “CARBAMIC ACID COMPOUNDS COMPRISING A PIPERAZINE LINKAGE AS HDAC INHIBITORS” (TOPOTARGET UK LIMITED, priority 2002, published 2008).

Data set [1] concerns NHEK-Ad (primary human adult keratinocyte line). In words: Secondary assay: cell proliferation inhibition WST-1, NHEK-Ad. It is filed as cell-based. The note with it: 48 h, read-out: Cell Proliferation Inhibition WST-1 (IC50 unless otherwise specified) NHEK-AD. An excerpt:
(§1) Compounds with HDAC inhibition activity, as determined using the primary assay, were subsequently evaluated using secondary cell-based assays. The following cell lines were used:
(§2) HeLa—Human cervical adenocarcinoma cell line (ATCC ref. No. CCL-2). K11—HPV E7 transformed human keratinocyte line provided by Pidder Jansen-Duerr, Institut für Biomedizinische Altemsforschung, Innsbruck, Austria. NHEK-Ad—Primary human adult keratinocyte line (Cambrex Corp., East Rutherford, N.J., USA).
(§3) Cells were plated in 96-well plates at 3-10×10^3 cells/well in 100 μL of culture medium. The following day, different concentrations of candidate compounds were added and the cells incubated at 37° C. for 48 h. Subsequently, 10 μL/well of WST-1 reagent was added and the cells reincubated for 1 hour. After the incubation time, absorbance was measured.
WST-1 is a tetrazolium salt which is cleaved to formazan dye by cellular enzymes. […] The formazan dye produced is quantified by a scanning multiwell spectrophotometer by measuring the absorbance of the dye solution at 450 nm wavelength (reference wavelength 690 nm).
Percent activity (% activity) in reducing the number of viable cells was calculated for each test compound as: […]
(§4) IC50 values were calculated using the software package Prism 3.0 (GraphPad Software Inc., San Diego, Calif.), setting top value at 100 and bottom value at 0.

The subject of data set [2] is K11 (HPV E7 transformed human keratinocyte line). In words: Secondary assay: cell proliferation inhibition WST-1, K11. It is filed as cell-based. The conditions noted are these: 48 h, read-out: Cell Proliferation Inhibition WST-1 (IC50 unless otherwise specified) K11.
From the text: as §1, §2, §3
(§5) WST-1 is a tetrazolium salt which is cleaved to formazan dye by cellular enzymes. An expansion in the number of viable cells results in an increase in the overall activity of mitochondrial dehydrogenases in the sample. This augmentation in the enzyme activity leads to an increase in the amount of formazan dye formed, which directly correlates to the number of metabolically active cells in the culture. The formazan dye produced is quantified by a scanning multiwell spectrophotometer by measuring the absorbance of the dye solution at 450 nm wavelength (reference wavelength 690 nm).
(§6) Percent activity (% activity) in reducing the number of viable cells was calculated for each test compound as:
(§7) % activity={(S^C−B)/(S^o−B)}×100
as §4

For data set [3], the system named is JURKAT (human T-cell line). Nature of the data set: Secondary assay: cell proliferation inhibition WST-1, Jurkat. The format is cell-based. The conditions noted are these: 48 h, read-out: Cell Proliferation Inhibition WST-1 (IC50 unless otherwise specified) Jurkat.
A further data set concerns HDAC (HeLa cell extract). In words: Primary assay: deacetylase activity, HeLa cell extract as source of HDAC. It is filed as biochemical, human. The note with it: for IC50: read-out: HDAC Inhibition (IC50 unless otherwise specified) HeLa. As to the method: Decreased activity indicates increased inhibition by the test compound.
Alternatively, the activity of the compounds as HDAC inhibitors was determined using a commercially available fluorescent assay kit: (Fluor de Lys™, BioMol Research Labs, Inc., Plymouth Meeting, USA).
Extensive comparative studies have shown that Primary Assay (1) and Primary Assay (2), discussed above, yield equivalent results. Primary Assay results reported herein are (a) exclusively from (1); (b) exclusively from (2); or (c) from both (1) and (2).
The HeLa cell extract was made from HeLa cells (ATCC Ref. No. CCL-2) by freeze-thawing three times in 60 mM TrisCl pH 8.0, 450 mM NaCl, 30% glycerol. Two cell volumes of extraction buffer were used, and particulate material was centrifuged out (20800 g, 4° C., 10 min). The supernatant extract having deacetylase activity was aliquoted and frozen for storage.
as §7

Another data set concerns HeLa cells. Nature of the data set: Secondary assay: cell proliferation inhibition WST-1, HeLa. The note with it: Homo sapiens, 48 h, read-out: Cell Proliferation Inhibition WST-1 (IC50 unless otherwise specified) HeLa. It is filed as cell-based.
From the text: as §1, §2, §3, §5, §6, §7, §4

In the next data set the target is mouse HDAC2 (Mus musculus, UniProt P70288). Nature of the data set: biochemical. An excerpt: Briefly, this assay relies on the release of radioactive acetate from a radioactively labelled histone fragment by the action of HDAC enzyme. Test compounds, which inhibit HDAC, reduce the yield of radioactive acetate. Signal (e.g., scintillation counts) measured in the presence and absence of a test compound provide an indication of that compound's ability to inhibit HDAC activity. Decreased activity indicates increased inhibition by the test compound. […]
Sequence of mouse HDAC2 (P70288 whole entry, the tested form may be a part): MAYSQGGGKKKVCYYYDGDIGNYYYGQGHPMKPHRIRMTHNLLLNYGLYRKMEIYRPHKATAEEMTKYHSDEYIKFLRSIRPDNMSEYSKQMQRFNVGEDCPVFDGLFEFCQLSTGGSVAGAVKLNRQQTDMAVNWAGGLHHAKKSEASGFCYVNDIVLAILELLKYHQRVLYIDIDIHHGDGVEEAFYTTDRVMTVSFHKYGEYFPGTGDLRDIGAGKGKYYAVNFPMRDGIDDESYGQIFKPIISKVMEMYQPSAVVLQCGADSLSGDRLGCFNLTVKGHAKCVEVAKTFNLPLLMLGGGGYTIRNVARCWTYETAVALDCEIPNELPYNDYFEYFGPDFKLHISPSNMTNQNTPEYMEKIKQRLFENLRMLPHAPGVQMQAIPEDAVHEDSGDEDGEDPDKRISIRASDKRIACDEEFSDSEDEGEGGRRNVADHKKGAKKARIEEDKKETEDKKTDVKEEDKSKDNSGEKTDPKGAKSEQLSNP
After purification of the radiolabelled histone fragment, it was incubated with a source of HDAC (e.g., an extract of HeLa cells (a rich source of HDAC), recombinantly produced HDAC1 or HDAC2) and any released acetate was extracted into an organic phase and quantitatively determined using scintillation counting. By including a test compound with the source of HDAC, that compound's ability to inhibit the HDAC was determined. […]
A source of HDAC (e.g., 2 μL of crude HeLa extract, 5 μL of HDAC1 or HDAC2; in elution buffer, as above) was incubated with 3 μL of radioactively labelled peptide along with appropriate dilutions of candidate compounds (1.5 μL) in a total volume of 150 μL of buffer (20 mM Tris pH 7.4, 10% glycerol). […] Radioactivity was measured using a Tri-Carb 2100TR Liquid Scintillation Analyzer (Packard). […]

[4] abbreviates: Homo sapiens, Keratinocyte, K11.

Like-named read-outs stand apart in the source and are kept apart here.

With `Nc1ccccc1NC(=O)c1ccc(CNC(=O)OCc2cccnc2)cc1` [MS-275, reference compound], the results for the IC50 in data set [1] (NHEK-AD), in data set [2] (K11) and in data set [3] were 3100 nM, 9160 nM and 365 nM, respectively.

Regarding `O=C(/C=C/c1cccc(S(=O)(=O)N2CCN(c3ccccc3)CC2)c1)NO` [PX118490, (E)-N-Hydroxy-3-{3-[(4-phenyl-1-piperazinyl)sulfonyl]phenyl}-2-propenamide], the IC50 in data set [2] (setting [4]) was 2490 nM; in data set [3] (Homo sapiens), 460 nM; in the data set with HeLa cells it was 1000 nM. The “HDAC Inhibition HeLa, % @ 100 nM” value in the data set with HDAC (HeLa cell extract) (100 nM compound) is reported as 59% @ 100 nM.

`O=C(CCCCCCC(=O)N1CCN(C(c2ccccc2)c2ccccc2)CC1)NO` [PX117764] had a melting point of 126 to 129 °C. The IC50 in data set [2] (setting [4]) was determined as 9450 nM. Also, the IC50 in data set [3] (Homo sapiens) was found to be 2680 nM. In addition, in the data set with HDAC (HeLa cell extract), the IC50 stood at 785 nM. In the data set on HeLa cells, the IC50 stood at 29200 nM.

For `COc1ccccc1N1CCN(C(=O)CCCCCCC(=O)NO)CC1` [PX117768, 8-[4-(2-Methoxy-phenyl)-piperazin-1-yl]-8-oxo-octanoic acid hydroxyamide], the melting point was 135 to 137 °C. In data set [2] (setting [4]), the IC50 worked out at 8670 nM. For the same compound, the IC50 in data set [3] (Homo sapiens) worked out at 1040 nM. The IC50 in the data set on HDAC (HeLa cell extract) worked out at 175 nM. In the data set on HeLa cells, the IC50 was determined as 3300 nM.

Take `CC(/C=C/C(=O)NO)=C\[C@@H](C)C(=O)c1ccc(N(C)C)cc1` [TSA, Trichostatin A, reference compound]: the IC50 worked out at 200 nM in data set [1] (Homo sapiens, Keratinocyte); 380 nM in data set [2] (Homo sapiens, Keratinocyte); 42 nM in data set [3] (Homo sapiens); 17 nM against mouse HDAC2; 350 nM with HeLa cells.
